Measurements from patent EP3390415B1, “(R)- AND (S)-1-(3-(3-N,N-DIMETHYLAMINOCARBONYL)PHENOXYL-4-NITROPHENYL)-1-ETHYL-N,N'-BIS (ETHYLENE)PHOSPHORAMIDATE, COMPOSITIONS AND METHODS FOR THEIR USE AND PREPARATION” (OBI PHARMA, INC., priority 2015, dated 2017).
Where two headings read alike, the source gives them in different places.

Experiments:
HCCC9810 = assay: In vitro human tumor cell line cytotoxicity assay; format: cell-based; conditions: for IC50: Homo sapiens
LIXC012 = assay: In vitro human tumor cell line cytotoxicity assay; format: cell-based; conditions: for IC50: Homo sapiens
Vcap = assay: In vitro human tumor cell line cytotoxicity assay; format: cell-based; conditions: for IC50: Homo sapiens, VCaP
[1] = Acute toxicity study in monkeys, body weight; format: in vivo, Cynomolgus monkeys; design: unit not given here; conditions: 2 mg/kg IV infusion
Experimental: (§1) TH 3423 and TH 3424 were tested in no naive monkeys (1 male and one female for each compound at 2 mg/kg) with 30-min intravenous infusion, TK sampling: on Day 1 and Day 15: 0.25, 0.5, 0.75, 1 and 2 hr post infusion initiation. Serum chemistry and hematology: pre-dose (Day 1), day 5, day 8 (pre-dose), day 15 (pre-dose), day 22 and day 28. Clinical observation: Daily during the study, total 35 days. Food consumption: Daily during the study, total 35 days. Bodyweight measurement: Twice weekly for five weeks.

HepG2 = assay: In vitro human tumor cell line cytotoxicity assay; format: cell-based; conditions: for IC50: Homo sapiens
C3A = assay: In vitro human tumor cell line cytotoxicity assay; format: cell-based; conditions: for IC50: Homo sapiens
[2] = Pharmacokinetics (TK) after 30-min IV infusion in monkeys; format: in vivo, Cynomolgus monkeys; conditions: 2 mg/kg 30-min IV infusion; for MRT inf / clearance / half-life / Vd / concentration at 0.25 hr / concentration at 0.5 hr / concentration at 0.75 hr / concentration at 1 hr / concentration at 2 hr: cynomolgus monkey, plasma; for half-life: read-out: Terminal t1/2 (converted); for Vd: read-out: Vss
Experimental: as §1

H460 cells = assay: In vitro proliferation assay, H460; format: cell-based; conditions: Homo sapiens, NCI-H460; 2 hrs exposure, wash, additional 70hrs, AlamarBlue; read-out: IC 50 in proliferation assay in H460 cells
Experimental: In vitro proliferation data on the H460 […] human tumor cell line is reported above in the compound table. IC50 values are reported in micromolar and result from exposure of compound at various concentrations for 2 hrs followed by a wash step and addition of fresh media followed by growth and cell viability staining and comparison to a media only treated control.
Specifically, exponentially growing cells were seeded at a density of 4 x 10^3 cells per well in a 96 well plate and incubated at 37°C in 5% CO2, 95% air and 100% relative humidity for 24 hours prior to addition of test compounds. Compounds were solubilized in 100% DMSO at 200 times the desired final test concentration. At the time of drug addition, compounds were further diluted to 4 times the desired final concentration with complete medium. Aliquots of 50 µl of compound at specified concentrations were added to microtiter wells already containing 150 µl of medium, resulting in the final drug concentration reported. After drug addition, the plates were incubated for an additional 2 hours at 37°C, 5% CO2, 95% air, and 100% relative humidity, then the drug was washed off and fresh medium was added and the plates were incubated for addition 70hrs at 37 °C, 5% CO2, 95% air and 100% relative humidity. At the end of this incubation, the viable cells were quantified using the AlamarBlue assay. The drug concentration resulting in growth inhibition of 50% (IC50) was calculated using Prism software (Irvine, CA), and the results were listed in the table.

SNU-387 = assay: In vitro human tumor cell line cytotoxicity assay; format: cell-based; conditions: for IC50: Homo sapiens
PLCPRF5 = assay: In vitro human tumor cell line cytotoxicity assay; format: cell-based; conditions: for IC50: Homo sapiens
Recombinant human AKR1C3 = Recombinant human AKR1C3 (Homo sapiens, UniProt P42330); assay: Activation by the aldoketo reductase AKR1C3; format: biochemical; conditions: 5 µM, 2 mM NADPH, 37 °C, up to 120 min; FIG. 2
Experimental: Recombinant human AKR1C3 was diluted to 25 µg/mL in phosphate buffered saline (PBS), pH 7.4 (37 °C), containing 2 mM NADPH. TH2870 or progesterone (positive control) in 30% methanol/70% water was added to the reaction mixture at a final concentration of 5 µM and incubated at 37 °C for 120 minutes. At various times up to 120 min, 50 µL of the reaction mixture was taken and 200 µL acetonitrile containing propranolol as internal standard was added, vortex-mixed and centrifuged for 10 min. The resulting supernatant (5 µL) was injected into a LC/MS/MS for quantitation of % remaining TH 2870 and progesterone. The compounds were tested in duplicates.

[3] = both sexes, mean, read-out: Plasma concentration, Mean
[4] = female, read-out: Plasma concentration
[5] = male, read-out: Plasma concentration

Recombinant human AKR1C3, sequence (P42330 whole entry): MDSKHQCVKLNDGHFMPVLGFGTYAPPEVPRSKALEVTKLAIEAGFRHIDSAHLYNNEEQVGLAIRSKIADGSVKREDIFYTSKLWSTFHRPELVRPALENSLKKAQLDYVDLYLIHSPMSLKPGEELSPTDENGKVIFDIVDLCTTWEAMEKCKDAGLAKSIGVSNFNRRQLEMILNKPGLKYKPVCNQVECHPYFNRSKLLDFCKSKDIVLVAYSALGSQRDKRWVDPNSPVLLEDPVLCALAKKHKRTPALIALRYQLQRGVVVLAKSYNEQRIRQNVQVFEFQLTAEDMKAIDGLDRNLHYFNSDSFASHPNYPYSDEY

For `C[C@@H](OP(=O)(N1CC1)N1CC1)c1ccc([N+](=O)[O-])c(Oc2cccc(C(=O)N(C)C)c2)c1` (single isomer, unassigned) [TH3423], the “Max Inhibition%” value (HCCC9810) was 93.7%, the “Min Inhibition%” value (HCCC9810) was 0.0% and the IC50 (HCCC9810; read-out: AbsIC50) was 18.7 nM. The IC50 (HCCC9810; read-out: RelIC50) was 16.8 nM, the “Max Inhibition%” value (LIXC012) was 84.8% and the “Min Inhibition%” value (LIXC012) was -1.1%. For the same compound, the IC50 (LIXC012; read-out: AbsIC50) was 16.9 nM, the IC50 (LIXC012; read-out: RelIC50) was 8.1 nM and the IC50 (Vcap; read-out: AbsIC50) was 21.6 nM. The IC50 (Vcap; read-out: RelIC50) was 26.6 nM, the “Max Inhibition%” value (Vcap; Vcap) was 101.0% and the “Min Inhibition%” value (Vcap; Vcap) was 1.1%. For the same compound, the body weight ([1]; Mean, Day 1) was 3.50, the body weight ([1]; Mean, Day 4) was 3.39 and the body weight ([1]; Mean, Day 8) was 3.32. The body weight ([1]; Mean, Day 11) was 2.96, the body weight ([1]; female, Day 1) was 3.65 and the body weight ([1]; female, Day 4) was 3.55. It also gave a body weight ([1]; female, Day 8) of 3.41, a body weight ([1]; female, Day 11) of 2.96 and a body weight ([1]; male, Day 1) of 3.35. It also gave a body weight ([1]; male, Day 4) of 3.23, a body weight ([1]; male, Day 8) of 3.23 and a body weight ([1]; male, Day 11) of 2.95. The “Max Inhibition%” value (HepG2) was 99.5%, the “Min Inhibition%” value (HepG2) was -7.2% and the IC50 (HepG2; read-out: AbsIC50) was 18.7 nM. The IC50 (HepG2; read-out: RelIC50) was 13.1 nM, the “Max Inhibition%” value (C3A) was 98.5% and the “Min Inhibition%” value (C3A) was 5.4%. For the same compound, the IC50 (C3A; read-out: AbsIC50) was 11.7 nM, the IC50 (C3A; read-out: RelIC50) was 9.6 nM and the AUCINF ([2]; Mean) was 770 hr^∗ng/mL. The AUClast ([2]; Mean) was 766 hr^∗ng/mL, the MRT inf ([2]; both sexes, Mean) was 12.2 min and the clearance ([2]; both sexes, Mean) was 43.3 mL/min/kg. For the same compound, the half-life ([2]; both sexes, Mean) was 7.74 min, the Vd ([2]; both sexes, Mean) was 0.527 L/kg and the concentration at 0.25 hr [2, 3] was 1210 ng/mL. It also gave a concentration at 0.5 hr [2, 3] of 1400 ng/mL, a concentration at 0.75 hr [2, 3] of 336 ng/mL and a concentration at 1 hr [2, 3] of 70 ng/mL. For the same compound, the concentration at 2 hr ([2]; both sexes, mean, 2 hr, read-out: Plasma concentration, Mean) was 1.03 ng/mL, the concentration at 0.25 hr [2, 4] was 1320 ng/mL and the concentration at 0.5 hr [2, 4] was 1370 ng/mL. It also gave a concentration at 0.75 hr [2, 4] of 313 ng/mL, a concentration at 1 hr [2, 4] of 55 ng/mL and an MRT inf ([2]; female) of 10.8 min. For the same compound, the clearance ([2]; female) was 43.5 mL/min/kg, the half-life ([2]; female) was 6.48 min and the Vd ([2]; female) was 0.469 L/kg. It also gave a concentration at 0.25 hr [2, 5] of 1100 ng/mL, a concentration at 0.5 hr [2, 5] of 1420 ng/mL and a concentration at 0.75 hr [2, 5] of 359 ng/mL. For the same compound, the concentration at 1 hr [2, 5] was 85 ng/mL, the concentration at 2 hr ([2]; male, 2 hr, read-out: Plasma concentration) was 1.03 ng/mL and the MRT inf ([2]; male) was 13.6 min. The clearance ([2]; male) was 43.2 mL/min/kg, the half-life ([2]; male) was 9 min and the Vd ([2]; male) was 0.584 L/kg. For the same compound, the Plasma concentration ([2]; female, 2 hr) was “BQL”, the AUCINF ([2]; female) was 766 hr^∗ng/mL and the AUClast ([2]; female) was 758 hr^∗ng/mL. For the same compound, the AUCINF ([2]; male) was 774 hr^∗ng/mL, the AUClast ([2]; male) was 773 hr^∗ng/mL and the IC50 (H460 cells) was 5 nM. For the same compound, the “Max Inhibition%” value (SNU-387) was 99.8%, the “Min Inhibition%” value (SNU-387) was 1.3% and the IC50 (SNU-387; read-out: AbsIC50) was 39.7 nM. The IC50 (SNU-387; read-out: RelIC50) was 46.3 nM, the “Max Inhibition%” value (PLCPRF5) was 77.7% and the “Min Inhibition%” value (PLCPRF5) was -4.9%. For the same compound, the IC50 (PLCPRF5; PLC-PRF-5, read-out: AbsIC50) was 207 nM and the IC50 (PLCPRF5; PLC-PRF-5, read-out: RelIC50) was 156 nM.

With `CC(=O)[C@H]1CC[C@H]2[C@@H]3CCC4=CC(=O)CC[C@]4(C)[C@H]3CC[C@]12C` [Progesterone, reference compound] the “disappearance of compound (% remaining) in the presence of AKR1C3” value (Recombinant human AKR1C3) was “reduced slowly”.
